Experimental data: the Kinase Knowledgebase extract (Sharma et al. 2016)
pIC50: −log10 of the molar value.

Assays:
[1] = molecular target: MAPK14 (UniProt Q16539); assay: MAPK14 Inhibition (PHAS-I)
[2] = molecular target: MAPK14 (human) (UniProt Q16539); assay: Antiproliferation Assay (U937 Cells)
[3] = molecular target: MAPK14 (UniProt Q16539); assay: MAPK14 inhibition (EGFRP)
[4] = test system: MAPK14 (Balb/c mice); assay: LPS Induced TNF-alpha Production (Balb/c Mice); details: dose or concentration not given here

Chain of MAPK14 (Q16539 whole entry, looked up): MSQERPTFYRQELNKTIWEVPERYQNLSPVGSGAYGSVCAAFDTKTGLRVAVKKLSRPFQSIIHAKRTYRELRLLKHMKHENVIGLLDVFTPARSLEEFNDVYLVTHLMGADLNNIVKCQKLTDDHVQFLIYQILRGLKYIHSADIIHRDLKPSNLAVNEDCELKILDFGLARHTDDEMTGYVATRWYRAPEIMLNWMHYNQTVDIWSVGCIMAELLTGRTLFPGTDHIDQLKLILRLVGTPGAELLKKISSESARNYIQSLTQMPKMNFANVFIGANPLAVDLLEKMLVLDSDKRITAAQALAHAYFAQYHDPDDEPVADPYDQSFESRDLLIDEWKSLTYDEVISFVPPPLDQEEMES
Chain of MAPK14 (human) (Q16539 whole entry, looked up): as above

Row | SMILES | pIC50 [1] | pIC50 [2] | pIC50 [3] | inhibition [4] [%]
1 | CN(C)CCn1cc(-c2ccc(F)cc2)c(-c2ccncc2)n1.CN(C)CCn1ncc(-c2ccc(F)cc2)c1-c1ccncc1 | 6.03 | 5.30 | 5.00 | –
2 | CN1CCC(n2cc(-c3ccc(F)cc3)c(-c3ccncc3)n2)CC1.CN1CCC(n2ncc(-c3ccc(F)cc3)c2-c2ccncc2)CC1 | 5.23 | – | 6.12 | 32
3 | OCCn1cc(-c2ccc(F)cc2)c(-c2ccncc2)n1.OCCn1ncc(-c2ccc(F)cc2)c1-c1ccncc1 | 6.16 | 4.40 | 5.00 | –
4 | Cn1nc(-c2ccncc2)c(-c2ccc(Cl)cc2)c1N | – | 5.00 | – | –
5 | CNC(=O)Nc1n[nH]c(-c2ccncc2)c1-c1ccc(F)cc1 | – | 5.00 | – | –
6 | Cc1n[nH]c(-c2ccncc2)c1-c1ccccc1 | – | 5.00 | – | –
7 | NS(=O)(=O)Nc1n[nH]c(-c2ccc(F)cc2)c1-c1ccncc1 | – | 5.00 | – | –
8 | Fc1ccc(-c2cn(CCN3CCOCC3)nc2-c2ccncc2)cc1.Fc1ccc(-c2cnn(CCN3CCOCC3)c2-c2ccncc2)cc1 | 6.07 | 4.66 | < 5.00 | –
